# Tested on: skin of the subject
# Experiment: Intradermal skin test for hypersensitivity to female reproductive hormones, case reports
# Assay type: in vivo, human
# Details: for Skin test result, Case 2: person one; for Skin test result, Case 6 / Skin test result, Case 7 / Skin test result, Case 4 / Skin test result, Case 1 / Skin test result, Case 5: person; for Skin test result, Case 6: menopausal syndrome; for Skin test result, Case 6 / Skin test result, Case 7: severe hot flashes; for Skin test result, Case 7: menopause; for Skin test result, Case 4: recurrent habitual abortions and severe PMS; for Skin test result, Case 1: severe premenstrual headaches, insomnia, acne; for Skin test result, Case 5: premenopausal syndrome, severe hot flashes and night sweats
# Method: The skin test included the use of three fractions of estrogen (E1, E2 and E3) and progesterone (P), along with suitable controls. Each hormone solution was intradermally administered at a volume of 20-160 μl.
# Skin test method using estriol, estrone, estradiol and/or progesterone and monitoring the immediate, late and delayed immuno-reaction to the injected hormones
# 1. The hormones (Table 1) diluted in solvents (Table 2) and controls (Table 3) in the above described dosages were administered intradermally into subjects.
# 2. Timing of intradermal administration and evaluation of the skin reaction was dependent on the tested subject.
# (i) In case of fertile woman: Intradermal administration of the hormones/controls initiated at the luteal phase of menstrual cycle;
# Tracking (evaluation of skin reaction) was after 20 minutes, after 48 hours and daily during the next 30 day (or a complete menstrual cycle).
# (ii) Other Cases (non-fertile subjects): Intradermal administration of the hormones/controls initiated at any time;
# Tracking (evaluation of skin reaction) was after 20 minutes, after 48 hours and daily during the next 7 day.
# 3. Measurement of wheal diameter—The wheal is formed on the skin in response to the intradermal administration of the hormone. Since the wheal responses are rarely regular or circular the wheal diameter is calculated using the following formula I.
# wheal diameter=(D+d)/2 Formula I: […]
# where D is the maximum diameter and d is perpendicular diameter.
# 4. Comparison with the controls was as follows:
# (i) In case of a negative reaction to histamine (wheal diameter smaller than 5 mm), the result indicates Familial Dysautonomia disease (the subject is advised to seek other treatment);
# (ii) In case of a positive reaction to saline (wheal diameter equals or larger than 5 mm), the test should be repeated;
# (iv) In case of a similar or smaller reaction (wheal diameter) as compared to solvent reaction, there is no sensitivity to the tested hormone and desensitization is optional;
# (v) Exception—In case the skin reaction (wheal diameter) is larger than 20 mm, the subject should not be treated and is referred to testing of cancer, systemic auto-immune diseases and other serous diseases.
# Following is a description of several cases of subjects which were diagnosed and treated according to the method of some embodiments of the invention. The concentrations of hormones used in the description of the following cases 1-7 and in Table 9 below were as follow:
# E1 (Estrone)—3 mM (millimole/Liter); 0.811 grams/liter;
# E2 —(estradiol)—1 mM (millimole/Liter); 0.3565 grams/liter;
# E3 (estriol)—3 mM (millimole/Liter); 0.86514 grams/liter;
# P (progesterone)—1 mM (millimole/Liter); 0.3144 grams/liter;
# [1] = habitual abortions and severe PMS
Compound,"Skin test result, Case 2 [1]","Skin test result, Case 3 (person two, habitual abortions and severe PMS)","Skin test result, Case 6","Skin test result, Case 7","Skin test result, Case 4","Skin test result, Case 1 (BMI=31)","Skin test result, Case 5","Skin test result, Case 1 (BMI=31, listed as Progesterone)"
17 beta Estradiol Valerate,positive delayed-type hypersensitivity reaction,delayed-type hypersensitivity reaction,Hypersensitivity (delayed type after 48 hours and 5 days),delayed-type (after 48 hours and 6 days) hypersensitivity reaction,delayed-type hypersensitivity reaction,delayed-type hypersensitivity reaction,,
"CC(=O)[C@H]1CC[C@H]2[C@@H]3CCC4=CC(=O)CC[C@]4(C)[C@H]3CC[C@]12C [progesterone, Progesterone]",positive delayed-type hypersensitivity reaction,,,delayed-type (after 48 hours and 6 days) hypersensitivity reaction,delayed-type hypersensitivity reaction,,delayed-type hypersensitivity reaction (after 48 hours),"delayed-type hypersensitivity reaction to estriol and estradiol, higher than to Progesterone"
"C[C@]12CC[C@@H]3c4ccc(O)cc4CC[C@H]3[C@@H]1C[C@@H](O)[C@@H]2O [estriol, Estriol]",,,Hypersensitivity (delayed type after 48 hours and 5 days),,delayed-type hypersensitivity reaction,delayed-type hypersensitivity reaction,delayed-type hypersensitivity reaction (after 48 hours),

# Source: patent publication US20110262365A1 (priority 2008, published 2011)
